Experimental data as given in patent US10316319B2, “Composition for diagnosis of liver metastasis of colorectal cancer and the use thereof” (SAMSUNG LIFE PUBLIC WELFARE FOUNDATION, priority 2010, dated 2019).

Legend:
Format in all cases: cell-based
[1] = test system: HCT116 colorectal cancer cells; experiment: Western blot of EMT markers and CCR3 in HCT116 cells; conditions: HCT116 cells stably transfected with GFP or CCL7, with or without SB328437; Western blot (FIG. 5D)
Method: For the Western blot, lysates from transfected HCT116 cells were obtained using Pro-prep buffer (Intron Biotechnology, Seoul, Korea), including protease inhibitors. 20-60 μg the protein extract was resolved by SDS-PAGE and transferred to polyvinylidene fluoride (PVDF) membranes and probed with antibodies against CCR1, CCR2, CCR3, CCR5, CCL7, and β-actin, as a loading control. Secondary antibodies conjugated to horseradish peroxidase were used to image the membrane.
HCT116 colorectal cancer cells were transfected with siRNA to lower expression of the CCL7 gene, and protein expression of CCL7, E-cadherin, Snail, vimentin, twist, and β-actin, as a loading control, was determined by Western blot analysis.
HCT116 colorectal cancer cells were also treated with anti-CCL7 antibodies and the CCR3 expression in cell extracts was determined via Western blot analysis.
HCT116 colorectal cancer cells were stably transfected with GFP (control) or CCL7 and the expression of E-cadherin, α-SMA, vimentin, twist, and β-actin, as a loading control, was determined via Western blot analysis.

[2] = test system: HCT116 colorectal cancer cells; experiment: Transwell migration and matrigel invasion assay of HCT116 cells; conditions: GFP and CCL7 transfected HCT116 treated with SB328437 (FIG. 6C)
Method: To explore the role of CCL7 on migration and invasion of cancer cells, HCT116 colorectal cancer cells were transiently transfected with siRNA to the CCL7 gene or stably transfected with GFP (control) or CCL7. The cells (5×10^4) were loaded into the migration and invasion chambers in a 24-well plate in serum-free RPMI media. The lower chambers were supplemented with 10% FBS and the cells were incubated for 24 or 48 hours. The cells were stained with calcein or hematoxylin-eosin and mounted. Cell migration and invasion was quantified via fluorescence.

[3] = test system: HCT116 colorectal cancer cells; experiment: Western blot of ERK/JNK activation (pERK, pJNK) in HCT116 cells; conditions: stably transfected HCT116, 20 μM SB328437 (FIG. 7B)
Method: To explore the role of CCL7 signaling and CCR3 in the EMT-related pathway, activation of ERK and JNK was measured. HCT116 colorectal cancer cells were transiently transfected with siRNA against CCL7 or stably transfected with GFP (control) or CCL7. The stably transfected cells were incubated in the presence or absence of 20 μM SB328437. Cell lysates were obtained as above and assayed via Western blot analysis for pERK, total ERK, pJNK, total JNK, and β-actin.

## COC(=O)[C@H](Cc1ccc([N+](=O)[O-])cc1)NC(=O)c1cccc2ccccc12 [SB328437]
[1]
  effect of CCL7 overexpression (reduced E-cadherin, increased α-SMA, vimentin, twist): blocked
[2]
  CCL7-induced migration and invasion of the colorectal cancer cells: blocked
[3]
  phosphorylation of ERK and JNK increased by CCL7 overexpression: inhibited
